Experimental data as given in patent publication US7910622B2, “Modulation of bacterial quorum sensing with synthetic ligands” (Wisconsin Alumni Research Foundation, priority 2007, dated 2011).

How the values were obtained:
Assay in all cases: cell-based
LuxR [1] = target: T1, LuxR (Aliivibrio fischeri, UniProt P35327); set-up: species or system Vibrio fischeri; conditions: for V. fischeri-LuxR Activation [%]: 200 μM ligand; for V. fischeri-LuxR Activation [%] / activation at 200 µM: V. fischeri ES114 (Δ-luxI), normalized to OHHL; for activation at 200 µM: read-out: V. fischeri-LuxR Activation [%], 200 μM ligand
T1 construct: a Δ-luxI derivative of V. fischeri ES114, in which the native lux operon behaves as the bioluminescent reporter; endogenous in cells; host or cells: V. fischeri ES114 (Δ-luxI)
Protocol: (§1) Luminescence assays. For agonism assays, an appropriate amount of AHL stock solution was added into a 96-well plate. An overnight culture of E. coli or V. fischeri was diluted 1:10 with appropriate media (LB plus 10 μg/mL tetracycline for E. coli; LBS for V. fischeri). A 200-μL portion of the diluted culture was added to each well of the plate. Plates were grown for 4-8 h with shaking (200 rpm; 30° C. for E. coli and RT for V. fischeri). Luminescence was measured using a multilabel plate reader and normalized to cell density. […] All assays were performed in triplicate. Graphpad Prism software was used to calculate IC50 and EC50 values.
(§2) Vibrio fischeri assay procedures. […] An overnight culture of V. fischeri ES114 (WT, Δ-luxI or Δ-luxR) was diluted 1:10 with LBS medium. A-200 μL portion of the diluted culture was added to each well of the plate. Plates were grown at RT with shaking (200 rpm) until the OD600=0.35-0.4 (4-6 h). Luminescence then was measured and normalized to cell density per well. […] All assays were performed in triplicate. IC50 and EC50 values were calculated using GraphPad Prism software using a sigmoidal curve fit.
(§3) V. fischeri reporter gene assay protocols. […] An overnight culture of V. fischeri ES114 (D-luxI) was diluted 1:10 with LBS medium. A 200-μL portion of the diluted culture was added to each well of the multititer plate. Plates were grown at RT with shaking (200 rpm) until the OD600=0.35-0.4 (4-6 h). Luminescence then was measured and normalized to cell density per well.
(§4) Dose response reporter gene assays. […] IC50 and EC50 values were calculated using GraphPad Prism software (v. 4.0) using a sigmoidal curve fit.
as §3, with “(Δ-luxI)” for “(D-luxI)”, “A200 μL” for “A 200-μL”, “incubated” for “grown”, “RT” for “RT with shaking (200 rpm)”
as §4

LasR [2] = target: T2, LasR (Pseudomonas aeruginosa, UniProt P25084); conditions: for E. coli-LasR Activation [%]: 5 μM ligand; for E. coli-LasR Activation [%] / activation at 5 µM: E. coli DH5α (pJN105L pSC11), normalized to OdDHL; for activation at 5 µM: read-out: E. coli-LasR Activation [%], 5 μM ligand
T2 construct: expressed in transfected cells; host or cells: E. coli DH5α (pJN105L pSC11), arabinose-induced
Protocol: (§5) E. coli LasR reporter gene assay protocols. […] An overnight culture of E. coli DH5a (pJN105L pSC11) grown at 37° C. was subculture by diluting 1/10 in fresh LB medium containing 100 μg/mL ampicillin and 15 μg/mL gentamicin and shaking at 37° C. until OD600=0.3. Arabinose (4 mg/mL) was then added to induce the LasR promoter and a 200 μL-portion of this culture was added to each well of the multititer plate containing AHLs. Plates were grown at 37° C. for 2 hours in a rotary shaking incubator (200 rpm; OD600=0.45). The cultures were then assayed for activity following the identical β-galactosidase assay protocols used in the A. tumefaciens reporter gene assays.
as §4
(§6) E. coli LasR reporter gene assay protocols. […] An overnight culture of E. coli DH5α (pJN105L pSC11) was diluted 1:10 with fresh LB medium containing 100 μg/mL ampicillin and 15 μg/mL gentamicin. This sub-culture was incubated at 37° C. until OD600=0.3 (4-6 h). Arabinose (4 mg/mL) was then added to induce the LasR promoter, and a 200 μL portion of this culture was added to each well of the multititer plate containing AHLs. Plates were incubated at 37° C. until OD600=0.45 (4-6 h). The cultures were then assayed for LasR activity following the identical β-galactosidase assay protocols used in the A. tumefaciens reporter gene assays (see above).
as §4

TraR = target: T3, TraR (Agrobacterium tumefaciens, UniProt P33905); conditions: for A. tumefaciens-TraR Activation [%]: 10 μM ligand; for A. tumefaciens-TraR Activation [%] / A. tumefaciens-TraR Inhibition [%] / inhibition at 10 µM: A. tumefaciens WCF47 (pCF372), normalized to OOHL; for A. tumefaciens-TraR Inhibition [%]: 10 μM synthetic ligand against 100 nM OOHL; for activation at 10 µM: read-out: A. tumefaciens-TraR Activation [%]; for inhibition at 10 µM: read-out: A. tumefaciens-TraR Inhibition [%], 10 μM synthetic ligand against 100 nM OOHL
T3 construct: These strains lack their AHL synthase (I) genes, but retain their native R genes; endogenous in cells; host or cells: A. tumefaciens WCF47 (Δ-traI) with PtraI-lacZ plasmid pCF372
Protocol: A. tumefaciens reporter gene assay protocols. […] An overnight culture of A. tumefaciens WCF47 (pCF372) was diluted to an OD600 of 0.1 in fresh AB minimal medium containing 400 μg/mL octopine and 50 μg/mL streptomycin. A 200 μL-portion of the diluted culture was added to each well of the multititer plate containing AHLs. Plates were grown at 28° C. for 18-20 h in a rotary shaking incubator (200 rpm). The cultures were then assayed for β-galactosidase activity following the Miller assay method. Briefly, 200 μL aliquots of bacteria from each of the wells were added to wells of a polystyrene 96-well plate and the OD600 of each well was recorded. Next, 50 μL aliquots from each well were transferred to a solvent resistant 96-well plate containing 200 μL Z buffer, 8 μL CHCl3 and 4 μL 0.1% aq. sodium dodecylsulfate (SDS). This suspension was mixed via repetitive pipetting, after which the CHCl3 was allowed to settle. A 100-μL aliquot from each well was transferred to a fresh polystyrene 96-well plate, and 20 μL of substrate, o-nitrophenyl-β-D-galactopyranoside (ONPG, 4 μg/mL in phosphate buffer), was added at time zero. After the development of appropriate yellow color (ca. 15-35 min), the reaction was terminated by the addition of 50 μL of 1 M Na2CO3. Absorbance at 420 nm and 550 nm was measured for each well using a plate reader, and Miller units were calculated according to standard methods.
as §4
A. tumefaciens reporter gene assay protocols. […] An overnight culture of A. tumefaciens WCF47 (pCF372) was diluted 1:10 with fresh AB minimal medium containing 400 μg/mL octopine and 50 μg/mL streptomycin. A 200 μL portion of the diluted culture was added to each well of the multititer plate containing AHLs. Plates were incubated at 28° C. for 18-24 h. The cultures were then assayed for β-galactosidase activity following the Miller assay method. Briefly, 200 μL aliquots of bacteria from each of the wells were added to wells of a 96-well multititer plate, and the OD600 of each well was recorded. Next, 50 μL aliquots from each well were transferred to a solvent resistant 96-well multititer plate containing 200 μL Z buffer, 8 μL CHCl3 and 4 μL 0.1% aq. SDS. This suspension was mixed via repetitive pipetting, after which the CHCl3 was allowed to settle. A 100 μL aliquot from each well was transferred to a fresh 96-well multititer plate, and 20 μL of substrate, o-nitrophenyl-β-D-galactopyranoside (ONPG, 4 μg/mL in phosphate buffer), was added at time zero. After the development of appropriate yellow color (ca. 20-30 min), the reaction was terminated by the addition of 50 μL of 1 M Na2CO3. Absorbances at 420 nm and 550 nm were measured for each well using a plate reader, and Miller units were calculated according to standard methods.
as §4

LuxR [3] = target: T1, LuxR; assay type: cell-based, Vibrio fischeri; conditions: for V. fischeri-LuxR Inhibition [%]: 5 μM synthetic ligand against 5 μM OHHL, V. fischeri ES114 (Δ-luxI), normalized to OHHL
Protocol: as §1, §2, §3, §4
as §3, with “(Δ-luxI)” for “(D-luxI)”, “A200 μL” for “A 200-μL”, “incubated” for “grown”, “RT” for “RT with shaking (200 rpm)”
as §4

LasR [4] = target: T2, LasR; assay type: cell-based; conditions: for E. coli-LasR Inhibition [%]: 5 μM synthetic ligand against 7.5 nM OdDHL; for E. coli-LasR Inhibition [%] / inhibition at 5 µM: E. coli DH5α (pJN105L pSC11), normalized to OdDHL; for inhibition at 5 µM: read-out: E. coli-LasR Inhibition [%], 5 μM synthetic ligand against 7.5 nM OdDHL
Protocol: as §5, §4, §6, §4

T1 sequence (P35327 whole entry): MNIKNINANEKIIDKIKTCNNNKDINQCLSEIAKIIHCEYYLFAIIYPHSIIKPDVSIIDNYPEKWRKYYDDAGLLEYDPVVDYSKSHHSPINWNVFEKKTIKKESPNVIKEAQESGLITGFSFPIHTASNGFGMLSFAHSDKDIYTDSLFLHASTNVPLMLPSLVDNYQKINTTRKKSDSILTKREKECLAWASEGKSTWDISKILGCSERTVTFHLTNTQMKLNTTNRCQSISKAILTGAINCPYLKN
T2 sequence (P25084 whole entry): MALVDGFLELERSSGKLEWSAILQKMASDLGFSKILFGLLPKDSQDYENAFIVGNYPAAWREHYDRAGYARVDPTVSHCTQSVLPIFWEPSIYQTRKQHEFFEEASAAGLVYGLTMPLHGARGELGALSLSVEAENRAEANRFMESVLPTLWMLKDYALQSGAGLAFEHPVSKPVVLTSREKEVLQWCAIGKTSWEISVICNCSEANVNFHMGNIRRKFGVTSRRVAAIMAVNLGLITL
T3 sequence (P33905 whole entry): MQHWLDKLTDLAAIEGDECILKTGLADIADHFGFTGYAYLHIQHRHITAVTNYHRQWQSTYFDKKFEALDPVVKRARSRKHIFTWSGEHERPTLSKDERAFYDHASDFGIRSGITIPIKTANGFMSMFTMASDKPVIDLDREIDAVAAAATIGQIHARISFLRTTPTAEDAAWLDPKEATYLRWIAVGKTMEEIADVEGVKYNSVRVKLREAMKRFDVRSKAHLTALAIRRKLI

Molecule | V. fischeri-LuxR Activation [%] (LuxR [1]) | E. coli-LasR Activation [%] (LasR [2]) | A. tumefaciens-TraR Activation [%] (TraR) | A. tumefaciens-TraR Inhibition [%] (TraR) | V. fischeri-LuxR Inhibition [%] (LuxR [3]) | E. coli-LasR Inhibition [%] (LasR [4]) | further results
2-aminophenol analog of OdDHL [compound 7, reference compound] | 1 | 18 | 0 | 9 | 3% | 4 | 
COc1cc(C(C)=O)ccc1OCC(=O)N[C@H]1CCOC1=O [D16] | 1 | 0 | 0 | 11 | 40% | 18 | 
O=C(Cc1ccc(Br)cc1)N[C@@H]1CCOC1=O [D-5] |  |  |  |  | ca. 20% |  | 
O=C(Cc1ccc(C(F)(F)F)cc1)N[C@H]1CCOC1=O [B23, 4-trifluoromethyl PHL] |  |  |  |  | 78% |  | activation at 200 µM (LuxR [1]): 3%; activation at 5 µM (LasR [2]): 0%; activation at 10 µM (TraR): 2%; inhibition at 10 µM (TraR): 92%; IC50 (LuxR [3]; determined against 5 μM OHHL, read-out: LuxR IC50): 610 nM; inhibition at 5 µM (LasR [4]): 26%
COc1ccc(CC(=O)N[C@H]2CCOC2=O)cc1 [C24] |  |  |  |  |  |  | Activation (%) (LuxR [1]; V. fischeri-LuxR, Library C primary agonism screen): 3%; Activation (%) (LasR [2]; E. coli-LasR, Library C primary agonism screen): 0%; Activation (%) (TraR; A. tumefaciens-TraR, Library C primary agonism screen): 0%; Inhibition (%) (TraR; A. tumefaciens-TraR, Library C primary antagonism screen): 26%; Inhibition (%) (LuxR [3]; V. fischeri-LuxR, Library C primary antagonism screen): 57%; Inhibition (%) (LasR [4]; E. coli-LasR, Library C primary antagonism screen): 16%
CC(C)(C)OC(=O)NCc1ccc(C(=O)N[C@H]2CCOC2=O)cc1 [A21] | 1 | 0 | 0 | 13 | 35% | 12 | 
CCCC(=O)CC(=O)N[C@H]1CCOC1=O [compound 3] |  |  |  |  |  |  | EC50 (LuxR [1]; LuxR EC50, V. fischeri ES114 (Δ-luxI)): 3000 nM; activation at 200 µM (LuxR [1]): 100%; activation at 5 µM (LasR [2]): 1%; activation at 10 µM (TraR): 1%; inhibition at 10 µM (TraR): 89%; inhibition at 5 µM (LasR [4]): 15%
O=C(CC(=O)N[C@@H]1CCOC1=O)Cc1ccccc1 [A25] | 3 | 84 | 2 | 50 |  | −7 | EC50 (LasR [2]; read-out: LasR EC50): 540 nM
O=C(CCCc1ccccc1)N[C@@H]1CCOC1=O [A26] | 3 | 0 | 0 | 31 | 41% |  | 
